Literature values as cited in PMC10452110, “Indole-3-Acetamido-Polyamines as Antimicrobial Agents and Antibiotic Adjuvants” (Biomolecules, 2023).
In brackets after ≈: the same amount, converted by molar mass. Read-outs that look alike come from different tables or passages of the source.

Experiments:
[1] = system: Staphylococcus aureus (ATCC 25923); design: method as in Cadelis et al. [15]; settings: S. aureus ATCC 25923; ref Cadelis et al. [15]; cited from earlier work
[2] = system: Klebsiella pneumoniae (ATCC 700603); design: method as in Cadelis et al. [15]; settings: K. pneumoniae ATCC 700603; ref Cadelis et al. [15]; cited from earlier work
P. aeruginosa ATCC 27853 = system: P. aeruginosa ATCC 27853; design: method as in Cadelis et al. [15]; settings: doxycycline at 4.5 µM, ref Cadelis et al. [15], cited from earlier work
MRSA (ATCC 43300) = settings: ref Cadelis et al. [15]; cited from earlier work
[3] = system: Pseudomonas aeruginosa (ATCC 27853); design: method as in Cadelis et al. [15]; settings: P. aeruginosa ATCC 27853; ref Cadelis et al. [15]; cited from earlier work
[4] = system: HEK293 (human embryonic kidney) cells; design: method as in Cadelis et al. [15]; settings: ref Cadelis et al. [15], cited from earlier work
human red blood cells = system: human red blood cells; design: method as in Cadelis et al. [15]; settings: ref Cadelis et al. [15], cited from earlier work
E. coli = system: E. coli; design: method as in PMID 33090655; settings: ref [15]; cited from earlier work
K. pneumoniae = system: K. pneumoniae; design: method as in PMID 33090655; settings: ref [15]; cited from earlier work
[5] = system: Cryptococcus neoformans (ATCC 208821); design: method as in Cadelis et al. [15]; settings: C. neoformans ATCC 208821; ref Cadelis et al. [15]; cited from earlier work
[6] = system: Acinetobacter baumannii (ATCC 19606); design: method as in Cadelis et al. [15]; settings: A. baumannii ATCC 19606; ref Cadelis et al. [15]; cited from earlier work
[7] = system: Escherichia coli (ATCC 25922); design: method as in Cadelis et al. [15]; settings: E. coli ATCC 25922; ref Cadelis et al. [15]; cited from earlier work
[8] = system: Candida albicans (ATCC 90028); design: method as in Cadelis et al. [15]; settings: C. albicans ATCC 90028; ref Cadelis et al. [15]; cited from earlier work

Compound: O=C(Cc1c[nH]c2ccc(Br)cc12)NCCCNCCCCNCCCNC(=O)Cc1c[nH]c2ccc(Br)cc12 [Compound 15a]
- MIC S. a [1]: 25 µM (≈ 16.9 µg/mL)
- MIC K. p [2]: >48 µM
- Dox/P. a fold change (ratio between intrinsic MIC of the test compound and combination MIC) (P. aeruginosa ATCC 27853; P. aeruginosa ATCC 27853): 32 fold
- Dox/P. a: concentration required to restore doxycycline activity (combination MIC) (P. aeruginosa ATCC 27853; P. aeruginosa): 6.25 µM
- MIC MRSA (MRSA (ATCC 43300)): 47.4 µM (≈ 32 µg/mL)
- MIC P. a [3]: 200 µM (≈ 135 µg/mL)
- IC50 ([4]; read-out: Cytotoxicity: concentration of compound at 50% cytotoxicity (IC50)): > 35 µM
- Cytotoxicity: concentration of compound at 50% cytotoxicity (IC50) [4]: negligible
- Hemolysis: concentration of compound at 10% hemolytic activity (HC10) (human red blood cells; listed as 5): negligible
- Hemolysis: concentration of compound at 10% hemolytic activity (HC10) (human red blood cells): >35 µM
- enhancement of the antibiotic action of doxycycline (MIC) (E. coli): 3.125 µM
- enhancement of the antibiotic action of doxycycline (MIC) (K. pneumoniae): 6.25 µM
- MIC C. n [5]: 11.9 µM (≈ 8.03 µg/mL)
- MIC A. b [6]: >48 µM
- MIC E. c [7]: 200 µM (≈ 135 µg/mL)
- MIC C. a [8]: >48 µM
